For assay [1], the target named is Sodium-dependent dopamine transporter (Rattus norvegicus, UniProt P23977). As to the kind of experiment: Tested for the ability to displace [3H]WIN-35 428 binding to dopamine transporter (DAT) in rat striatal tissue. It counts as tissue-based, Striatum.
Assay [2] deals with Norepinephrine transporter (Rattus norvegicus, UniProt Q9WTR4). As to the kind of experiment: Compound was tested for the inhibition of norepinephrine [3H]NE reuptake into rat cortical membranes. It counts as cell membranes, Membrane.
Assay [3] addresses Norepinephrine transporter (Rattus norvegicus) (UniProt Q9WTR4). In words: Selectivity ratio towards Norepinephrine and to that of dopamine transporter.
Assay [4] shares this target. As to the kind of experiment: Selectivity ratio towards Norepinephrine and to that of serotonin transporter.
Assay [5] concerns the target Monoamine transporters; serotonin & dopamine (Rattus norvegicus) (UniProt P31652+P23977). As to the kind of experiment: Selectivity ratio towards Serotonin and to that of dopamine transporter. It counts as protein assay.
For assay [6], the target named is Sodium-dependent serotonin transporter (Rattus norvegicus, UniProt P31652). In words: Compound was tested for the inhibition of serotonin [3H]SER reuptake into rat forebrain membranes. It is filed as cell membranes, Membrane.
The species entered for assay [7] is Rattus norvegicus. In words: Compound was tested for the inhibition of [3H]-DA reuptake into rat striatal tissue. It is filed as functional, Striatum.
For assay [8], the species on record is Rattus norvegicus. In words: Compound was tested for the inhibition of [3H]DA reuptake into dopamine transporter in rat striatal tissue. It is filed as functional, Striatum.

The values below come from ChEMBL document CHEMBL1135173, “Discovery of substituted 3,4-diphenyl-thiazoles as a novel class of monoamine transporter inhibitors through 3-D pharmacophore search using a new pharmacophore model derived from mazindol” (Bioorg Med Chem Lett, 2002).

Sequence of Sodium-dependent dopamine transporter (P23977 whole entry): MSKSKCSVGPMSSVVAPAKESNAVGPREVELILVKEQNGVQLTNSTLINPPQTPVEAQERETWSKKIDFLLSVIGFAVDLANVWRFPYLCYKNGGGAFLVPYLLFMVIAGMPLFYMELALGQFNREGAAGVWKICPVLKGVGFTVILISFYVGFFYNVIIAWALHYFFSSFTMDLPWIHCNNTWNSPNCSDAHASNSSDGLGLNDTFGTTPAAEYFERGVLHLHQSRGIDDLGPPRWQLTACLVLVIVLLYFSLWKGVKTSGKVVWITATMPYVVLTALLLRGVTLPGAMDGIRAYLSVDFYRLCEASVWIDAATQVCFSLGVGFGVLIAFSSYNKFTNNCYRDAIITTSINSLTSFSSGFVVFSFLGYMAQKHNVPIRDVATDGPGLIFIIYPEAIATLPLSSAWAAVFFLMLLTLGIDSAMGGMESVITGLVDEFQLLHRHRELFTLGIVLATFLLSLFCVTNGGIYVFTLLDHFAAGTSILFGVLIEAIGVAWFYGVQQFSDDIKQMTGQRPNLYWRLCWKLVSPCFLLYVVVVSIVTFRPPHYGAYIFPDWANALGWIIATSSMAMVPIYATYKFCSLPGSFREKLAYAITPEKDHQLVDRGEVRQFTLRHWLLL
Sequence of Monoamine transporters; serotonin & dopamine (Rattus norvegicus) (P23977 whole entry, looked up): as the sequence (P23977 whole entry) above
Sequence of Monoamine transporters; serotonin & dopamine (Rattus norvegicus) (P31652 whole entry, looked up): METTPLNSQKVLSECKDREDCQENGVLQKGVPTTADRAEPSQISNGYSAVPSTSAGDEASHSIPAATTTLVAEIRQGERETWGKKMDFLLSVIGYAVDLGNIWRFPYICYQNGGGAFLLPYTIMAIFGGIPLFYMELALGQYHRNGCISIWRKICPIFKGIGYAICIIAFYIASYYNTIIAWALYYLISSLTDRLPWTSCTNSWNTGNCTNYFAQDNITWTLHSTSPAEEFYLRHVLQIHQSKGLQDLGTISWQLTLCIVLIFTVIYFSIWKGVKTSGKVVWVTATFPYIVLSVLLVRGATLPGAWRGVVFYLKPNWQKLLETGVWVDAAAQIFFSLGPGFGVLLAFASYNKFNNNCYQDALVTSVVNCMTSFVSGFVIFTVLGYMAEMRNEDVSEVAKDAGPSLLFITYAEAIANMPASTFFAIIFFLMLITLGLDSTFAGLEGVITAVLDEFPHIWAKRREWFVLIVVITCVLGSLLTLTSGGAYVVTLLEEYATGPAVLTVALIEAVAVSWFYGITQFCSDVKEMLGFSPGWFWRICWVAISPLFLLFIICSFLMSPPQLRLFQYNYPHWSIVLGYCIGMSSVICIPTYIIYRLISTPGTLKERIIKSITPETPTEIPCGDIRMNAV
Sequence of Sodium-dependent serotonin transporter (P31652 whole entry): as the sequence (P31652 whole entry, looked up) above
Sequence of Norepinephrine transporter (Q9WTR4 whole entry): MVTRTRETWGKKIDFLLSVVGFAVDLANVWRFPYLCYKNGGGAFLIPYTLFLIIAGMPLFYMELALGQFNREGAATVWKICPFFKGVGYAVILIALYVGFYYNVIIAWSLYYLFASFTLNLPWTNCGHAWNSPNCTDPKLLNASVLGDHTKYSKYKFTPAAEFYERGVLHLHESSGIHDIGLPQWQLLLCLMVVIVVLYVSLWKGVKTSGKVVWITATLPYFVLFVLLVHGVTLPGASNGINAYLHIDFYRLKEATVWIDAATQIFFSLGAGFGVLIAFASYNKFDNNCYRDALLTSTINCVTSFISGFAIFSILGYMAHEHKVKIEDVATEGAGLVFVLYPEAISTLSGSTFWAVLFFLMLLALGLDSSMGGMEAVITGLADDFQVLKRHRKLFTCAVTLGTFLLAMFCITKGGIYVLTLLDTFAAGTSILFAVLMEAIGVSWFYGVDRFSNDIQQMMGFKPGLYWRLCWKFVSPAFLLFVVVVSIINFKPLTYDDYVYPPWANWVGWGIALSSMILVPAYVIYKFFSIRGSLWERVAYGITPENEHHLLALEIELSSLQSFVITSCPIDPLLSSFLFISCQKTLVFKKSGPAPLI
Sequence of Norepinephrine transporter (Rattus norvegicus) (Q9WTR4 as listed by the source): as the sequence (Q9WTR4 whole entry) above

For `N=c1scc(-c2ccc(Br)cc2)n1-c1cccc(C(F)(F)F)c1`, the Ki in assay [1] was 71 nM; in assay [2], 140 nM; in assay [6] it was 67 nM; in the assay filed under Rattus norvegicus [7], 120 nM. The Selectivity ratio in assay [3] amounted to 1.17; in assay [4], 2.09; in assay [5], 0.56.
Take `Cc1cc(-n2c(-c3c(F)cccc3F)csc2=N)ccc1Cl`: the Ki in assay [1] worked out at 48 nM; in assay [2], 86 nM; in assay [6] it was 433 nM; in the assay listed under Rattus norvegicus [7], 102 nM. Moreover, the Selectivity ratio in assay [3] was 0.84; in assay [4], 0.2; in assay [5] it was 4.25.
In the case of `N=c1scc(-c2ccc(Cl)cc2)n1-c1ccccc1F`, the inhibition constant Ki is 189 nM in assay [1], 36 nM in assay [2], 1410 nM in assay [6] and 210 nM in the assay filed under Rattus norvegicus [7]. The Selectivity ratio in assay [3] was determined as 0.17; in assay [4], 0.026; in assay [5] it was 6.69.
In the case of `N=c1scc(-c2ccc(Cl)cc2)n1-c1ccc(Cl)cc1Cl`, the Ki was 533 nM in assay [1], 141 nM in assay [2], 843 nM in assay [6] and 254 nM in the assay filed under Rattus norvegicus [7]. Further, the Selectivity ratio in assay [3] stood at 0.55; in assay [4], 0.17; in assay [5], 3.32.
For the compound `Cc1ccc(-c2csc(=N)n2-c2ccc(Cl)cc2)cc1`, the Ki in assay [1] is 124 nM; in assay [2] it was 801 nM; in assay [6] it was 2620 nM; in the assay listed under Rattus norvegicus [7] it was 171 nM. The figures for the Selectivity ratio in assay [3], in assay [4] and in assay [5] were 4.68, 0.31 and 15.3, respectively.
Turning to `Cc1cc(-c2csc(=N)n2-c2ccc(Cl)cc2)ccc1Cl`, the Ki in assay [1] turned out to be 24 nM; in assay [2], 99 nM; in assay [6], 225 nM; in the assay filed under Rattus norvegicus [7], 23 nM. Also, the results for the Selectivity ratio in assay [3], in assay [4] and in assay [5] were 4.1, 0.44 and 9.4, respectively.
For `N=c1scc(-c2ccc(Cl)cc2)n1-c1cccc(C(F)(F)F)c1`, the Ki came out at 86 nM in assay [1], 26 nM in assay [2], 398 nM in assay [6] and 101 nM in the assay listed under Rattus norvegicus [7]. For the same compound, the Selectivity ratio came out at 0.26 in assay [3], 0.065 in assay [4] and 3.94 in assay [5].
`CC1C(=O)N=CC(c2ccccc2)=C1c1ccccc1` (stereo not drawn) returned a Ki in assay [1] of more than 1000 nM.
With `N=c1scc(-c2ccc(Cl)cc2)n1-c1ccccc1N1CCOCC1`, the inhibition constant (Ki) in assay [1] is 42000 nM; in assay [2], 22100 nM; in the assay filed under Rattus norvegicus [8] it was 76400 nM; in assay [6], 424 nM. In addition, the figures for the Selectivity ratio in assay [3], in assay [4] and in assay [5] were 0.29, 52.1 and 0.006, respectively.
Regarding `c1ccc(-c2nccnc2-c2ccccc2)cc1`, the inhibition constant Ki in assay [1] is more than 1000 nM.
